# Results as given in PubChem BioAssay (NCI).
#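 Briefly, cells in 96-well plates were exposed to five compound concentrations for 48 h, and endpoints were estimated by linear interpolation. TGI: total growth inhibition.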
# Experiments:
# Assay in all cases: inhibition of tumour cell growth, NCI panel, 48 h
# DU-145 prostate = test system: DU-145 prostate
# HOP-62 NSCLC = test system: HOP-62 NSCLC
# SW-620 colon = test system: SW-620 colon
# MCF7 breast = test system: MCF7 breast
# NCI-H522 lung = test system: NCI-H522 lung
# NCI/ADR-RES ovarian = test system: NCI/ADR-RES ovarian
# MOLT-4 leukemia = test system: MOLT-4 leukemia
# SK-MEL-5 melanoma = test system: SK-MEL-5 melanoma
# SK-MEL-28 melanoma = test system: SK-MEL-28 melanoma
# HL-60(TB) leukemia = test system: HL-60(TB) leukemia
# RXF 393 renal = test system: RXF 393 renal
# NCI-H23 lung = test system: NCI-H23 lung
# SF-539 CNS = test system: SF-539 CNS
# SN12C renal = test system: SN12C renal
# SK-OV-3 ovarian = test system: SK-OV-3 ovarian
# SF-295 CNS = test system: SF-295 CNS
# NCI-H460 lung = test system: NCI-H460 lung
# COLO 205 colon = test system: COLO 205 colon
# SF-268 CNS = test system: SF-268 CNS
# ACHN renal = test system: ACHN renal
# MALME-3M melanoma = test system: MALME-3M melanoma
# MDA-MB-231 breast = test system: MDA-MB-231 breast
# SK-MEL-2 melanoma = test system: SK-MEL-2 melanoma
# HCT-116 colon = test system: HCT-116 colon
# SR leukemia = test system: SR leukemia
# OVCAR-8 ovarian = test system: OVCAR-8 ovarian
# CCRF-CEM leukemia = test system: CCRF-CEM leukemia
# IGROV1 ovarian = test system: IGROV1 ovarian
# LOX IMVI melanoma = test system: LOX IMVI melanoma
# HOP-92 NSCLC = test system: HOP-92 NSCLC
# UACC-62 melanoma = test system: UACC-62 melanoma
# UACC-257 melanoma = test system: UACC-257 melanoma
# CAKI-1 renal = test system: CAKI-1 renal
# RPMI-8226 leukemia = test system: RPMI-8226 leukemia
# HT29 colon = test system: HT29 colon
# MDA-MB-435 = test system: MDA-MB-435
# KM12 colon = test system: KM12 colon
# PC-3 prostate = test system: PC-3 prostate
# OVCAR-3 ovarian = test system: OVCAR-3 ovarian
# A498 renal = test system: A498 renal
# A549 NSCLC = test system: A549 NSCLC
# 786-0 renal = test system: 786-0 renal
# HCT-15 colon = test system: HCT-15 colon
# BT-549 breast = test system: BT-549 breast
# K-562 leukemia = test system: K-562 leukemia
# NCI-H226 lung = test system: NCI-H226 lung
# MDA-N = test system: MDA-N
# M14 melanoma = test system: M14 melanoma
# HS 578T breast = test system: HS 578T breast
# EKVX NSCLC = test system: EKVX NSCLC
# T-47D breast = test system: T-47D breast
# OVCAR-5 ovarian = test system: OVCAR-5 ovarian
# OVCAR-4 ovarian = test system: OVCAR-4 ovarian
# TK-10 renal = test system: TK-10 renal
# U251 CNS = test system: U251 CNS
# SNB-19 CNS = test system: SNB-19 CNS
# UO-31 renal = test system: UO-31 renal
# HCC-2998 colon = test system: HCC-2998 colon
# SNB-75 CNS = test system: SNB-75 CNS
structure (smiles),measurement,setting,value
NC(=O)N/N=C1/CCC(O)CC1CC(=O)O (configuration not stated),TGI,DU-145 prostate,> 100 µM
same,TGI,HOP-62 NSCLC,> 100 µM
same,TGI,SW-620 colon,> 100 µM
same,TGI,MCF7 breast,> 100 µM
same,TGI,NCI-H522 lung,> 100 µM
same,TGI,NCI/ADR-RES ovarian,> 100 µM
same,TGI,MOLT-4 leukemia,> 100 µM
same,TGI,SK-MEL-5 melanoma,> 100 µM
same,TGI,SK-MEL-28 melanoma,> 100 µM
same,TGI,HL-60(TB) leukemia,31.9 µM
same,TGI,RXF 393 renal,> 100 µM
same,TGI,NCI-H23 lung,> 100 µM
same,TGI,SF-539 CNS,> 100 µM
same,TGI,SN12C renal,> 100 µM
same,TGI,SK-OV-3 ovarian,> 100 µM
same,TGI,SF-295 CNS,> 100 µM
same,TGI,NCI-H460 lung,> 100 µM
same,TGI,COLO 205 colon,> 100 µM
same,TGI,SF-268 CNS,> 100 µM
same,TGI,ACHN renal,> 100 µM
same,TGI,MALME-3M melanoma,> 100 µM
same,TGI,MDA-MB-231 breast,> 100 µM
same,TGI,SK-MEL-2 melanoma,> 100 µM
same,TGI,HCT-116 colon,> 100 µM
same,TGI,SR leukemia,> 100 µM
same,TGI,OVCAR-8 ovarian,> 100 µM
same,TGI,CCRF-CEM leukemia,> 100 µM
same,TGI,IGROV1 ovarian,> 100 µM
same,TGI,LOX IMVI melanoma,> 100 µM
same,TGI,HOP-92 NSCLC,> 100 µM
same,TGI,UACC-62 melanoma,> 100 µM
same,TGI,UACC-257 melanoma,> 100 µM
same,TGI,CAKI-1 renal,> 100 µM
same,TGI,RPMI-8226 leukemia,> 100 µM
same,TGI,HT29 colon,> 100 µM
same,TGI,MDA-MB-435,> 100 µM
same,TGI,KM12 colon,> 100 µM
same,TGI,PC-3 prostate,> 100 µM
same,TGI,OVCAR-3 ovarian,> 100 µM
same,TGI,A498 renal,> 100 µM
same,TGI,A549 NSCLC,> 100 µM
same,TGI,786-0 renal,> 100 µM
same,TGI,HCT-15 colon,> 100 µM
same,TGI,BT-549 breast,> 100 µM
same,TGI,K-562 leukemia,> 100 µM
same,TGI,NCI-H226 lung,> 100 µM
same,TGI,MDA-N,> 100 µM
same,TGI,M14 melanoma,> 100 µM
same,TGI,HS 578T breast,> 100 µM
same,TGI,EKVX NSCLC,> 100 µM
same,TGI,T-47D breast,> 100 µM
same,TGI,OVCAR-5 ovarian,> 100 µM
same,TGI,OVCAR-4 ovarian,> 100 µM
same,TGI,TK-10 renal,> 100 µM
same,TGI,U251 CNS,> 100 µM
same,TGI,SNB-19 CNS,> 100 µM
same,TGI,UO-31 renal,> 100 µM
OCC(O)C(O)C(O)C(O)c1nc2ccc(Cl)cc2[nH]1 (configuration not stated),TGI,DU-145 prostate,> 100 µM
same,TGI,HOP-62 NSCLC,> 100 µM
same,TGI,SW-620 colon,> 100 µM
same,TGI,MCF7 breast,> 100 µM
same,TGI,NCI-H522 lung,> 100 µM
same,TGI,NCI/ADR-RES ovarian,> 100 µM
same,TGI,MOLT-4 leukemia,> 100 µM
same,TGI,SK-MEL-5 melanoma,> 100 µM
same,TGI,SK-MEL-28 melanoma,> 100 µM
same,TGI,HL-60(TB) leukemia,4.89 µM
same,TGI,RXF 393 renal,> 100 µM
same,TGI,NCI-H23 lung,> 100 µM
same,TGI,SF-539 CNS,> 100 µM
same,TGI,SN12C renal,> 100 µM
same,TGI,SK-OV-3 ovarian,> 100 µM
same,TGI,SF-295 CNS,> 100 µM
same,TGI,NCI-H460 lung,> 100 µM
same,TGI,COLO 205 colon,> 100 µM
same,TGI,SF-268 CNS,> 100 µM
same,TGI,ACHN renal,> 100 µM
same,TGI,HCC-2998 colon,> 100 µM
same,TGI,MALME-3M melanoma,> 100 µM
same,TGI,MDA-MB-231 breast,> 100 µM
same,TGI,SK-MEL-2 melanoma,> 100 µM
same,TGI,HCT-116 colon,> 100 µM
same,TGI,OVCAR-8 ovarian,> 100 µM
same,TGI,CCRF-CEM leukemia,> 100 µM
same,TGI,IGROV1 ovarian,> 100 µM
same,TGI,LOX IMVI melanoma,> 100 µM
same,TGI,HOP-92 NSCLC,> 100 µM
same,TGI,UACC-62 melanoma,> 100 µM
same,TGI,UACC-257 melanoma,> 100 µM
same,TGI,CAKI-1 renal,> 100 µM
same,TGI,RPMI-8226 leukemia,> 100 µM
same,TGI,HT29 colon,> 100 µM
same,TGI,MDA-MB-435,> 100 µM
same,TGI,KM12 colon,> 100 µM
same,TGI,PC-3 prostate,> 100 µM
same,TGI,OVCAR-3 ovarian,> 100 µM
same,TGI,SNB-75 CNS,> 100 µM
same,TGI,A498 renal,> 100 µM
same,TGI,A549 NSCLC,> 100 µM
same,TGI,786-0 renal,> 100 µM
same,TGI,HCT-15 colon,> 100 µM
same,TGI,BT-549 breast,> 100 µM
same,TGI,K-562 leukemia,> 100 µM
same,TGI,NCI-H226 lung,> 100 µM
same,TGI,MDA-N,> 100 µM
same,TGI,M14 melanoma,> 100 µM
same,TGI,HS 578T breast,> 100 µM
same,TGI,EKVX NSCLC,> 100 µM
same,TGI,T-47D breast,> 100 µM
same,TGI,OVCAR-5 ovarian,> 100 µM
same,TGI,OVCAR-4 ovarian,> 100 µM
same,TGI,TK-10 renal,> 100 µM
same,TGI,U251 CNS,> 100 µM
same,TGI,SNB-19 CNS,> 100 µM
same,TGI,UO-31 renal,> 100 µM
CCCC(=O)NC(Nc1ccc(S(=O)(=O)Nc2cc(C)on2)cc1)(C(=O)OCC)C(F)(F)F (configuration not stated),TGI,DU-145 prostate,> 100 µM
same,TGI,HOP-62 NSCLC,> 100 µM
same,TGI,SW-620 colon,> 100 µM
same,TGI,MCF7 breast,> 100 µM
same,TGI,NCI-H522 lung,> 100 µM
same,TGI,NCI/ADR-RES ovarian,> 100 µM
same,TGI,MOLT-4 leukemia,> 100 µM
same,TGI,SK-MEL-5 melanoma,> 100 µM
same,TGI,SK-MEL-28 melanoma,> 100 µM
same,TGI,HL-60(TB) leukemia,> 100 µM
same,TGI,RXF 393 renal,> 100 µM
same,TGI,NCI-H23 lung,> 100 µM
same,TGI,SF-539 CNS,> 100 µM
same,TGI,SN12C renal,> 100 µM
same,TGI,SK-OV-3 ovarian,> 100 µM
same,TGI,SF-295 CNS,> 100 µM
same,TGI,COLO 205 colon,> 100 µM
same,TGI,SF-268 CNS,> 100 µM
same,TGI,ACHN renal,> 100 µM
same,TGI,HCC-2998 colon,> 100 µM
same,TGI,MALME-3M melanoma,> 100 µM
same,TGI,MDA-MB-231 breast,> 100 µM
same,TGI,SK-MEL-2 melanoma,> 100 µM
same,TGI,HCT-116 colon,> 100 µM
same,TGI,SR leukemia,> 100 µM
same,TGI,OVCAR-8 ovarian,> 100 µM
same,TGI,CCRF-CEM leukemia,> 100 µM
same,TGI,IGROV1 ovarian,> 100 µM
same,TGI,LOX IMVI melanoma,> 100 µM
same,TGI,HOP-92 NSCLC,> 100 µM
same,TGI,UACC-62 melanoma,> 100 µM
same,TGI,UACC-257 melanoma,> 100 µM
same,TGI,CAKI-1 renal,> 100 µM
same,TGI,RPMI-8226 leukemia,> 100 µM
same,TGI,HT29 colon,> 100 µM
same,TGI,MDA-MB-435,> 100 µM
same,TGI,KM12 colon,> 100 µM
same,TGI,PC-3 prostate,> 100 µM
same,TGI,OVCAR-3 ovarian,> 100 µM
same,TGI,SNB-75 CNS,> 100 µM
same,TGI,A549 NSCLC,> 100 µM
same,TGI,786-0 renal,> 100 µM
same,TGI,HCT-15 colon,> 100 µM
same,TGI,BT-549 breast,> 100 µM
same,TGI,K-562 leukemia,> 100 µM
same,TGI,NCI-H226 lung,> 100 µM
same,TGI,MDA-N,> 100 µM
same,TGI,M14 melanoma,> 100 µM
same,TGI,HS 578T breast,> 100 µM
same,TGI,EKVX NSCLC,> 100 µM
same,TGI,T-47D breast,> 100 µM
same,TGI,OVCAR-5 ovarian,> 100 µM
same,TGI,OVCAR-4 ovarian,> 100 µM
same,TGI,TK-10 renal,> 100 µM
same,TGI,U251 CNS,> 100 µM
same,TGI,SNB-19 CNS,> 100 µM
same,TGI,UO-31 renal,> 100 µM
